What was measured:
[1] = system: RS4;11 cells; assay: Inhibitory effect on proliferation of RS4;11 cells (CCK-8); type: cell-based, human; conditions: Homo sapiens, RS4-11, 72 h
Experimental: Experimental Example 2: Inhibitory Effect of Compounds on Proliferation of RS4;11 Cells
RS4;11 cells (from Nanjing Cobioer) in logarithmic growth phase and good cell condition were added to a centrifuge tube and centrifuged at 1500 rpm for 3 min in a low speed centrifuge. The supernatant was discarded, and 5 mL of complete medium (RPMI basic medium+10 wt % fetal bovine serum (FBS)) was added using a pipette for cell resuspension. The cells were counted using a cell counter, diluted with complete medium to a cell density of 2×10^5 cells/mL, and added with an equivalent amount of RPMI basic medium to adjust the serum concentration to 5% and the cell density to 1×10^5 cells/mL for plate seeding. The cells were seeded on a 96-well plate at 100 μL/well using a pipettor, and incubated in an incubator at 37° C., 5% CO2 with saturated humidity. After 24 h of incubation, compounds were loaded using a nanoliter pipettor, 2 duplicate wells were set for each concentration, and cells without compound were used as negative controls. […] Inhibition rate (%)=(mean value of negative control group—mean value of experimental group)/(mean value of negative control group—mean value of blank group)×100%. A dose-response curve was fitted by four-parameter analysis, with the logarithm of compound concentration serving as abscissa and inhibition rate serving as ordinate, so that IC50 was calculated (FIG. 2).

[2] = target: T1, BCL-XL/BAK (Homo sapiens, UniProt Q07817); assay: Screening on inhibitory activity for BCL-XL/BAK binding (Cisbio HTRF kit)
T1 construct: purchased Cisbio
Experimental: 1.2 Screening on Inhibitory Activity for BCL-XL/BAK Binding
300 nM Tag1-BCL-XL protein stock solution and 10 μM Tag2-BAK protein stock solution were diluted to 2 nM and 80 nM respectively with dilution buffer in kit (model: BCL-XL/BAK (BH3) BINDING ASSAY KITS, from Cisbio). 5 μL of Tag1-BCL-XL protein diluent was added to each well, then different compounds dissolved with DMSO were added to the wells with a nanoliter pipettor, allowing the final compound concentrations to be 2000 nM to 0.488 nM (4-fold gradient for 7 concentrations in total). Blank control wells (without enzyme) and negative control wells (with enzyme, plus vehicle DMSO) were set, and 2 replicate wells were set. Finally, 5 μL of Tag2-BAK protein diluent was added to each well, and the mixture was mixed well by centrifugation and incubated at 25° C. for 15 min. 100× anti-Tag1-Eu^3+ and 100× anti-Tag2-XL665 were both diluted to 1× working concentration with the detection buffer in the kit. Anti-Tag1-Eu^3+ and anti-Tag2-XL665 were mixed well in a 1:1 ratio, and the mixture was added to wells at 5 µL/well, and incubated at 25° C. for 2 h or more. The plate was read using a PE Envision multi-functional microplate reader (excitation: […], emission: 665 nm) and IC50 (shown in table 1) was calculated by four-parameter fitting.

[3] = target: T2, BCL-2/BAK (Homo sapiens, UniProt P10415); assay: Screening on inhibitory activity for BCL-2/BAK binding (Cisbio HTRF kit)
T2 construct: purchased Cisbio
Experimental: 1.1 Screening on Inhibitory Activity for BCL-2/BAK Binding
500 nM Tag1-BCL-2 protein stock solution and 20 μM Tag2-BAK protein stock solution were diluted to 5 nM and 120 nM respectively with dilution buffer in kit (model: BCL-2/BAK (BH3) BINDING ASSAY KITS, from Cisbio). 5 μL of Tag1-BCL-2 protein diluent was added to each well, then different compounds dissolved with DMSO were added to the wells with a nanoliter pipettor, allowing the final compound concentrations to be 200 nM to 0.0488 nM (4-fold gradient for 7 concentrations in total). Blank control wells (without enzyme) and negative control wells (with enzyme, plus vehicle DMSO) were set, and 2 replicate wells were set. Finally, 5 μL of Tag2-BAK protein diluent was added to each well, and the mixture was mixed well by centrifugation and incubated at 25° C. for 15 min. 100× anti-Tag1-Eu^3+ and 100× anti-Tag2-XL665 were both diluted to 1× working concentration with the detection buffer in the kit. Anti-Tag1-Eu^3+ and anti-Tag2-XL665 were mixed well in a 1:1 ratio, and the mixture was added to wells at 5 μL/well, and incubated at 25° C. for 2 h or more. The plate was read using a PE Envision multi-functional microplate reader (excitation: […], emission: 665 nm) and IC50 (shown in table 1) was calculated by four-parameter fitting.

T1 sequence (Q07817 whole entry, species assumed): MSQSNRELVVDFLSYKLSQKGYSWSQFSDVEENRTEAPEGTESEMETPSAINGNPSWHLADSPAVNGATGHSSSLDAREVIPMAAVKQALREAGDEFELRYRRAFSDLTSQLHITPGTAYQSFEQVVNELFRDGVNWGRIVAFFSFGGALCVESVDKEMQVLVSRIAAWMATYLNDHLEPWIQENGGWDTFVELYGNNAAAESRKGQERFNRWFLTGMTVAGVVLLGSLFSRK
T2 sequence (P10415 whole entry, species assumed): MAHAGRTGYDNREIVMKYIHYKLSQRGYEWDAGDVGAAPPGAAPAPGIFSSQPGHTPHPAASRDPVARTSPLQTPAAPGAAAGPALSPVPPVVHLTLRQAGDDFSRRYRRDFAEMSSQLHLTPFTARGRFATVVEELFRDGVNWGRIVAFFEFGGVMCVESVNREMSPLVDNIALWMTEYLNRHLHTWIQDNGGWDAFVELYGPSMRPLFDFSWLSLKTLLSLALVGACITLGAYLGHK

| SMILES | IC50 [1] | IC50 [2] | IC50 [3] |
| --- | --- | --- | --- |
| COC(=O)N1CCOC(CNc2ccc(S(=O)(=O)NC(=O)c3ccc(N4CCN(CC5=C(c6ccc(C(F)(F)F)cc6Cl)CC(C)(C)CC5)CC4)cc3Oc3cnc4[nH]ccc4c3)cc2[N+](=O)[O-])C1 (stereo not drawn) [Compound 75-1, 4-(4-{[2-(2-chloro-4-trifluoromethylphenyl)-4,4-dimethylcyclohex-1-enyl]methyl}-piperazin-1-yl)-N-({3-nitro-4-[((4-(methoxyformyl)morpholin-2-yl)methyl)amino]phenyl}sulfonyl)-2-(1H-pyrrolo[2,3-b]pyridin-5-yloxy)-benzamide] | 3.9 nM | 322 nM | 3.5 nM |
| CC1(C)CCC(CN2CCN(c3ccc(C(=O)NS(=O)(=O)c4ccc(NCCCC5CN(S(C)(=O)=O)CCO5)c([N+](=O)[O-])c4)c(Oc4cnc5[nH]ccc5c4)c3)CC2)=C(c2ccc(C(F)(F)F)cc2Cl)C1 (stereo not drawn) [Compound 71-1, 4-(4-{[2-(2-chloro-4-trifluoromethylphenyl)-4,4-dimethylcyclohex-1-enyl]methyl}-piperazin-1-yl)-N-({3-nitro-4-[(3-(4-(2-methylsulfonyl)morpholin-2-yl)propyl)amino]phenyl}sulfonyl)-2-(1H-pyrrolo[2,3-b]pyridin-5-yloxy)-benzamide] | 6.1 nM | 109 nM | 0.76 nM |
| CC1(C)CCC(CN2CCN(c3ccc(C(=O)NS(=O)(=O)c4ccc(NC[C@@H]5CN(S(C)(=O)=O)CCO5)c([N+](=O)[O-])c4)c(Oc4cnc5[nH]ccc5c4)c3)CC2)=C(c2ccc(C(F)(F)F)cc2Cl)C1 [Compound 67-1, (R)-4-(4-{[2-(2-chloro-4-trifluoromethylphenyl)-4,4-dimethylcyclohex-1-enyl]methyl}-piperazin-1-yl)-N-({3-nitro-4-[(((4-(methylsulfonyl)morpholin)-2-yl)methyl)amino]phenyl}sulfonyl)-2-(1H-pyrrolo[2,3-b]pyridin-5-yloxy)-benzamide] | 0.8 nM | 199 nM | 0.6 nM |
| CC1(C)CCC(CN2CCN(c3ccc(C(=O)NS(=O)(=O)c4ccc(NCC5CN(C(=O)C(C)(C)C)CCO5)c([N+](=O)[O-])c4)c(Oc4cnc5[nH]ccc5c4)c3)CC2)=C(c2ccc(C(F)(F)F)cc2Cl)C1 (stereo not drawn) [Compound 50-1, 4-(4-{[2-(2-chloro-4-trifluoromethylphenyl)-4,4-dimethylcyclohex-1-enyl]methyl}-piperazin-1-yl)-N-({3-nitro-4-[((4-pivaloylmorpholin-2-yl)methyl)amino]phenyl}sulfonyl)-2-(1H-pyrrolo[2,3-b]pyridin-5-yloxy)-benzamide] | 4.3 nM | 211 nM | 2.59 nM |
| COCC(=O)N1CCCC(CNc2ccc(S(=O)(=O)NC(=O)c3ccc(N4CCN(CC5=C(c6ccc(C(F)(F)F)cc6Cl)CC(C)(C)CC5)CC4)cc3Oc3cnc4[nH]ccc4c3)cc2[N+](=O)[O-])C1 (stereo not drawn) [Compound 58-1, 4-(4-{[2-(2-chloro-4-trifluoromethylphenyl)-4,4-dimethylcyclohex-1-enyl]methyl}-piperazin-1-yl)-N-({3-nitro-4-[((1-(2-methoxyacetyl)piperidin-3-yl)methyl)amino]phenyl}sulfonyl)-2-(1H-pyrrolo[2,3-b]pyridin-5-yloxy)-benzamide] | 5.3 nM | 145 nM | 2.35 nM |
| CC1(C)CCC(CN2CCN(c3ccc(C(=O)NS(=O)(=O)c4ccc(NCC5CN(C=O)CCO5)c([N+](=O)[O-])c4)c(Oc4cnc5[nH]ccc5c4)c3)CC2)=C(c2ccc(C(F)(F)F)cc2Cl)C1 (stereo not drawn) [Compound 48-1, 4-(4-{[2-(2-chloro-4-trifluoromethylphenyl)-4,4-dimethylcyclohex-1-enyl]methyl}-piperazin-1-yl)-N-({3-nitro-4-[((N-formylmorpholin-2-yl)methyl)amino]phenyl}sulfonyl)-2-(1H-pyrrolo[2,3-b]pyridin-5-yloxy)-benzamide] | 1.4 nM | 118 nM | 1.4 nM |
| CC(C)C(=O)N1CCO[C@@H](CNc2ccc(S(=O)(=O)NC(=O)c3ccc(N4CCN(CC5=C(c6ccc(C(F)(F)F)cc6Cl)CC(C)(C)CC5)CC4)cc3Oc3cnc4[nH]ccc4c3)cc2[N+](=O)[O-])C1 [Compound 62-1, (S)-4-(4-{[2-(2-chloro-4-trifluoromethylphenyl)-4,4-dimethylcyclohex-1-enyl]methyl}-piperazin-1-yl)-N-({3-nitro-4-[((4-isobutyrylmorpholin-2-yl)methyl)amino]phenyl}sulfonyl)-2-(1H-pyrrolo[2,3-b]pyridin-5-yloxy)-benzamide] | 4.1 nM | 145 nM | 2.35 nM |
| CC(C)C(=O)N1CCO[C@H](CNc2ccc(S(=O)(=O)NC(=O)c3ccc(N4CCN(CC5=C(c6ccc(C(F)(F)F)cc6Cl)CC(C)(C)CC5)CC4)cc3Oc3cnc4[nH]ccc4c3)cc2[N+](=O)[O-])C1 [Compound 66-1, (R)-4-(4-{[2-(2-chloro-4-trifluoromethylphenyl)-4,4-dimethylcyclohex-1-enyl]methyl}-piperazin-1-yl)-N-({3-nitro-4-[((4-isobutyrylmorpholin-2-yl)methyl)amino]phenyl}sulfonyl)-2-(1H-pyrrolo[2,3-b]pyridin-5-yloxy)-benzamide] | 3.3 nM | 273 nM | 2.6 nM |
| CC1(C)CCC(CN2CCN(c3ccc(C(=O)NS(=O)(=O)c4ccc(NC[C@H]5CCOC5)c([N+](=O)[O-])c4)c(Oc4cnc5[nH]ccc5c4)c3)CC2)=C(c2ccc(C(F)(F)F)cc2Cl)C1 [Compound 35-1, (R)-4-(4-{[2-(2-chloro-4-trifluoromethylphenyl)-4,4-dimethylcyclohex-1-enyl]methyl}-piperazin-1-yl)-N-({3-nitro-4-[((tetrahydrofuran-3-yl)methyl)amino]phenyl}sulfonyl)-2-(1H-pyrrolo[2,3-b]pyridin-5-yloxy)-benzamide] | 9.6 nM | 232 nM | 1.61 nM |
| CC1(C)CCC(CN2CCN(c3ccc(C(=O)NS(=O)(=O)c4ccc(NCC5CN(C(=O)C(F)(F)F)CCO5)c([N+](=O)[O-])c4)c(Oc4cnc5[nH]ccc5c4)c3)CC2)=C(c2ccc(C(F)(F)F)cc2Cl)C1 (stereo not drawn) [Compound 52-1, 4-(4-{[2-(2-chloro-4-trifluoromethylphenyl)-4,4-dimethylcyclohex-1-enyl]methyl}-piperazin-1-yl)-N-({3-nitro-4-[((4-(2,2,2-trifluoroacetyl)morpholin-2-yl)methyl)amino]phenyl}sulfonyl)-2-(1H-pyrrolo[2,3-b]pyridin-5-yloxy)-benzamide] | 0.9 nM | 175 nM | 3.9 nM |
| CCOC(=O)N1CCOC(CNc2ccc(S(=O)(=O)NC(=O)c3ccc(N4CCN(CC5=C(c6ccc(C(F)(F)F)cc6Cl)CC(C)(C)CC5)CC4)cc3Oc3cnc4[nH]ccc4c3)cc2[N+](=O)[O-])C1 (stereo not drawn) [Compound 74-1, 4-(4-{[2-(2-chloro-4-trifluoromethylphenyl)-4,4-dimethylcyclohex-1-enyl]methyl}-piperazin-1-yl)-N-({3-nitro-4-[((4-(ethoxyformyl)morpholin-2-yl)methyl)amino]phenyl}sulfonyl)-2-(1H-pyrrolo[2,3-b]pyridin-5-yloxy)-benzamide] | 6.9 nM | 252 nM | 1.66 nM |
| CC1(C)CCC(CN2CCN(c3ccc(C(=O)NS(=O)(=O)c4ccc(NCC5CCCN(S(C)(=O)=O)C5)c([N+](=O)[O-])c4)c(Oc4cnc5[nH]ccc5c4)c3)CC2)=C(c2ccc(C(F)(F)F)cc2Cl)C1 (stereo not drawn) [Compound 15-1] | 7.2 nM | 729 nM | 3.83 nM |

— US20250257064A1, “TRIFLUOROMETHYL-SUBSTITUTED SULFONAMIDE AS BCL-2-SELECTIVE INHIBITOR” (Chia Tai Tianqing Pharmaceutical Group Co., Ltd., priority 2018, published 2025)
